Broadly, the pIC50 is the IC50 on a negative log10 scale, so that one unit is a factor of ten.

pIC50: −log10 of the molar value.

The test system of this assay is Caco-2. The experiment in a line: Cytotoxicity against human Caco2 cells assessed as cell viability after 48 hrs by MTT assay. It is filed as functional, cell-based. To be noted: Caco-2, 48 h. On the technique in general: Tetrazolium dyes change colour on reduction, which living cells bring about.
With `C[C@H]1[C@@H](CC(=O)N(CCNC(=O)[C@@H](N)CCCCN)CC(=O)NCCN(CC(=O)OC(C)(C)C)C(=O)C[C@H]2O[C@@H]3O[C@@]4(C)CC[C@H]5[C@H](C)CC[C@@H]([C@H]2C)[C@@]35OO4)O[C@@H]2O[C@@]3(C)CC[C@H]4[C@H](C)CC[C@@H]1[C@@]24OO3`, the pIC50 was 5.45.
Then `C[C@H]1[C@@H](CC(=O)N(CCNC(=O)OCC2c3ccccc3-c3ccccc32)CC(=O)OC(C)(C)C)O[C@@H]2O[C@@]3(C)CC[C@H]4[C@H](C)CC[C@@H]1[C@@]24OO3`, with 5.27; and `C[C@H]1[C@@H](CC(=O)N(CCNC(=O)[C@H](CCCCNC(=O)OC(C)(C)C)NC(=O)OCC2c3ccccc3-c3ccccc32)CC(=O)OC(C)(C)C)O[C@@H]2O[C@@]3(C)CC[C@H]4[C@H](C)CC[C@@H]1[C@@]24OO3`, with 4.92; and `C[C@H]1[C@@H](CC(=O)N(CCNC(=O)[C@H](CCCCN)NC(=O)OCC2c3ccccc3-c3ccccc32)CC(=O)OC(C)(C)C)O[C@@H]2O[C@@]3(C)CC[C@H]4[C@H](C)CC[C@@H]1[C@@]24OO3`, with 5.36.
Regarding `C[C@H]1[C@@H](CC(=O)N(CCNC(=O)[C@@H](N)CCCCN)CC(=O)OC(C)(C)C)O[C@@H]2O[C@@]3(C)CC[C@H]4[C@H](C)CC[C@@H]1[C@@]24OO3`, the negative logarithm of the IC50 (pIC50) is 4.83.
Then `C[C@H]1[C@@H](CC(=O)N(CCNC(=O)OCC2c3ccccc3-c3ccccc32)CC(=O)NCCN(CC(=O)OC(C)(C)C)C(=O)C[C@H]2O[C@@H]3O[C@@]4(C)CC[C@H]5[C@H](C)CC[C@@H]([C@H]2C)[C@@]35OO4)O[C@@H]2O[C@@]3(C)CC[C@H]4[C@H](C)CC[C@@H]1[C@@]24OO3`, with 5.54; and `C[C@H]1[C@@H](CC(=O)N(CCNC(=O)[C@H](CCCCNC(=O)OC(C)(C)C)NC(=O)OCC2c3ccccc3-c3ccccc32)CC(=O)NCCN(CC(=O)OC(C)(C)C)C(=O)C[C@H]2O[C@@H]3O[C@@]4(C)CC[C@H]5[C@H](C)CC[C@@H]([C@H]2C)[C@@]35OO4)O[C@@H]2O[C@@]3(C)CC[C@H]4[C@H](C)CC[C@@H]1[C@@]24OO3`, with 5.10; and `C[C@H]1[C@@H](CC(=O)N(CCNC(=O)[C@H](CCCCN)NC(=O)OCC2c3ccccc3-c3ccccc32)CC(=O)NCCN(CC(=O)OC(C)(C)C)C(=O)C[C@H]2O[C@@H]3O[C@@]4(C)CC[C@H]5[C@H](C)CC[C@@H]([C@H]2C)[C@@]35OO4)O[C@@H]2O[C@@]3(C)CC[C@H]4[C@H](C)CC[C@@H]1[C@@]24OO3`, with 5.69.
As for `C[C@H]1[C@@H](O)O[C@@H]2O[C@@]3(C)CC[C@H]4[C@H](C)CC[C@@H]1[C@@]24OO3` [ARTENIMOL], the negative logarithm of the IC50 (pIC50) is 4.57.

These data come from ChEMBL document CHEMBL2203083, “Facile synthesis and anticancer activity of C-10 non-acetal deoxoartemisinin dimers” (Bioorg Med Chem Lett, 2012).
